Laboratory results as given in PMC9574867, “Discovery and Characterization of Synthesized and FDA-Approved Inhibitors of Clostridial and Bacillary Collagenases” (Journal of Medicinal Chemistry, 2022).
≈ marks a conversion by molar mass, not a printed value. Read-outs that look alike come from different tables or passages of the source.

How the values were obtained:
[1] = molecular target: HDAC-3 (Homo sapiens, UniProt O15379); assay: Human off-target inhibition, HDAC-3; type: biochemical
[2] = in vitro; settings: human, NHDF cells (normal human dermal fibroblasts)
[3] = system: B. cereus AH187 infection; type: in vivo, Galleria mellonella; settings: for Survival of infected larvae vs control without inhibitor: 37 °C, 3 days
[4] = molecular target: T1, MMP-2 (Homo sapiens, UniProt P08253); assay: MMP inhibition assay, MMP-2; type: biochemical
T1 construct: catalytic domains of three human MMPs; purchased Sigma-Aldrich
T1 sequence (P08253 110-444 limits assumed): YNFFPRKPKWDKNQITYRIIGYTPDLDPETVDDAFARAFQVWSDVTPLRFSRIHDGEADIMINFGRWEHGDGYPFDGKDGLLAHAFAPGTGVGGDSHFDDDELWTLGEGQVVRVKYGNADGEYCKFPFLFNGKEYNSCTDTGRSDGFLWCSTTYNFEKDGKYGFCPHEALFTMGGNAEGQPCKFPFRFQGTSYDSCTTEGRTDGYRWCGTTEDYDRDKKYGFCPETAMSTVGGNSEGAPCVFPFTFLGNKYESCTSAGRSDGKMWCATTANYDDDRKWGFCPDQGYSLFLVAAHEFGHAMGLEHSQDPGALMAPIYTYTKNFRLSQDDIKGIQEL
Outline: (§1)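 Catalytic domains of human MMPs were tested with a commercial fluorescence MMP inhibition kit following the manufacturer's protocol. Compounds were assayed at 100 μM.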

[5] = molecular target: COX-1 (Homo sapiens, UniProt P23219); assay: Human off-target inhibition, COX-1; type: biochemical
COX-1, sequence (P23219 24-599): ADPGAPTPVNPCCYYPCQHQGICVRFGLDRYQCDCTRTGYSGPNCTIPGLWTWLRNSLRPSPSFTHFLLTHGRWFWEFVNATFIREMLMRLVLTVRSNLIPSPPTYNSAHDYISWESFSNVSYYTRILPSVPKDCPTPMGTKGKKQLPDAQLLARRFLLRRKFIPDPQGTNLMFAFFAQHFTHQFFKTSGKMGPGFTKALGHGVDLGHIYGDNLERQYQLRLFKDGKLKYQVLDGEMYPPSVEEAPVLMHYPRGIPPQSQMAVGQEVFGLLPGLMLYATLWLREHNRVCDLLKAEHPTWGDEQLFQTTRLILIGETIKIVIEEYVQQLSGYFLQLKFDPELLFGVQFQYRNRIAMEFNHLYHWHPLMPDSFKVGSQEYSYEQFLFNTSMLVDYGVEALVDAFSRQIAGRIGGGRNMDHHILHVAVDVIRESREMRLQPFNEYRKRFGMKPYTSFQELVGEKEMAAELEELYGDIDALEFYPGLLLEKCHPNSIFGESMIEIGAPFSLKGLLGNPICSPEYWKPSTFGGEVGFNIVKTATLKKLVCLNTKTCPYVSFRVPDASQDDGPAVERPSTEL
Description: To assess the selectivity of the compounds over human MMPs and on other bacterial collagenases, selected compounds were tested against ColG-CU and ColH-PD from C. histolyticum and ColA-CU from B. cereus strain ATCC14579. In addition, the compounds were tested on catalytic domains of three human MMPs, which are characterized by different depths of the S1′ binding pocket (MMP-1 (shallow), −2 (intermediate), and −3 (deep)). They were also tested against other important human off-targets, which are involved in gene expression and the processing of TNF-α; these include HDAC-3, -8, TACE (ADAM-17),[33],[34] and COX-1.

[6] = molecular target: T2, MMP-1 (Homo sapiens, UniProt P03956); assay: MMP inhibition assay, MMP-1; type: biochemical
T2 construct: catalytic domains of three human MMPs; purchased Sigma-Aldrich
T2 sequence (P03956 98-276 limits assumed): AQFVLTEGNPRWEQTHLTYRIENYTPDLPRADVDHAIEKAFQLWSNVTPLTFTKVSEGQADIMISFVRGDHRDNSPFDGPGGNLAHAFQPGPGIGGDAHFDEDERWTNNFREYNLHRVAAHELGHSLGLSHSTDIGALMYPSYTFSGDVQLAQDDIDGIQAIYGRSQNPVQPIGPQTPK
Outline: as §1

[7] = molecular target: T3, MMP-3 (Homo sapiens, UniProt P08254); assay: MMP inhibition assay, MMP-3; type: biochemical
T3 construct: catalytic domains of three human MMPs; purchased Sigma-Aldrich
T3 sequence (P08254 100-272 limits assumed): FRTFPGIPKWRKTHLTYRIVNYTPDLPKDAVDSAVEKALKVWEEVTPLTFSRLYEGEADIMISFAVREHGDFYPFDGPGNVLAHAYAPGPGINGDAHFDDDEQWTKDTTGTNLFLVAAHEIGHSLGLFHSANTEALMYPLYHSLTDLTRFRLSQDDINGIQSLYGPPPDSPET
Outline: as §1

[8] = system: B. cereus AH187; assay: B. cereus growth inhibition assay; type: cell-based; settings: Bacillus cereus, AH187; BHI medium, 37 °C, 48 h, 200–3 μM; read-out: MIC50 (µM) AH187
[9] = molecular target: ColQ1-CU (Bacillus cereus, UniProt B9J3S4); assay: biochemical; set-up: species or system B. cereus strain Q1
ColQ1-CU, sequence (B9J3S4 94-765 limits assumed): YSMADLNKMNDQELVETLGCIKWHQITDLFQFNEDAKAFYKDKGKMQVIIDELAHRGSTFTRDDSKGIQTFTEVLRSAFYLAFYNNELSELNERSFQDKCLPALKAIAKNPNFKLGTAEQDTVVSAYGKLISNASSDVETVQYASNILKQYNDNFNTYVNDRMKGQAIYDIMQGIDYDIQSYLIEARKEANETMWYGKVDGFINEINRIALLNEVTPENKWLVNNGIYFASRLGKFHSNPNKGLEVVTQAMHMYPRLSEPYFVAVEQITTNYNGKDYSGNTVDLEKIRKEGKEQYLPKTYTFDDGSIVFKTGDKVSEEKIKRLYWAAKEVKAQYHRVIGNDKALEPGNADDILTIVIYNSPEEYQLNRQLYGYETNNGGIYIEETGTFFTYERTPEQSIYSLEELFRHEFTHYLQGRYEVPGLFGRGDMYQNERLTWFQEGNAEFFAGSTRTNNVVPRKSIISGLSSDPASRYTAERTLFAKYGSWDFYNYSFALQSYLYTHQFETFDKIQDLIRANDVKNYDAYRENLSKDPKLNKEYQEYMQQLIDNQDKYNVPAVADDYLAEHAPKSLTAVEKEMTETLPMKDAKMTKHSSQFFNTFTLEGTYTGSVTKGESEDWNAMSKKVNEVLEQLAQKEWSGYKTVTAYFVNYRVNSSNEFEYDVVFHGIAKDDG

[10] = molecular target: ColQ1-FL (Bacillus cereus, UniProt B9J3S4); type: biochemical; settings: SDS-PAGE
ColQ1-FL, sequence (B9J3S4 94-965 limits assumed): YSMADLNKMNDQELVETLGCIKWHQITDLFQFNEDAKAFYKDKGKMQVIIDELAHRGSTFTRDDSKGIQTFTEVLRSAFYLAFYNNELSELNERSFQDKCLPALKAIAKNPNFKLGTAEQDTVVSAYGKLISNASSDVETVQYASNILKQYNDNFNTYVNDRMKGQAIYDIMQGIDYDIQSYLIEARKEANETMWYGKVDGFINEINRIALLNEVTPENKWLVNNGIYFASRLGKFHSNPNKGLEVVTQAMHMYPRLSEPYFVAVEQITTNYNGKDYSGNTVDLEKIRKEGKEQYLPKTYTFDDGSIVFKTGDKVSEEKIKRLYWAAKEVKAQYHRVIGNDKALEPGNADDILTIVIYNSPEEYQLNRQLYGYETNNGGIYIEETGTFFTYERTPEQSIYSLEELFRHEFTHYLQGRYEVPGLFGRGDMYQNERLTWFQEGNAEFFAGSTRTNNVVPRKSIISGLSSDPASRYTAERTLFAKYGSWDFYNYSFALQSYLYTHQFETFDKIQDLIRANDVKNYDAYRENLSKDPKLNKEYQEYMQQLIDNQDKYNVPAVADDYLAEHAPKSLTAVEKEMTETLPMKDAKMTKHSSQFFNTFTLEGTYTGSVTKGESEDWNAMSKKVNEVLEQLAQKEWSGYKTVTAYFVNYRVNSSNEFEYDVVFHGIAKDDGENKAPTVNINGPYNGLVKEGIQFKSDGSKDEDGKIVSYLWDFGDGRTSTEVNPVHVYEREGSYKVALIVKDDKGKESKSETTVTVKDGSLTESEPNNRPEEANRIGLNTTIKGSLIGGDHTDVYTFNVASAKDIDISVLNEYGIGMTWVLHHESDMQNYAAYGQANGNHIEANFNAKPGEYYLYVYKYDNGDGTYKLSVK

[11] = molecular target: ColA-CU (Bacillus cereus, UniProt Q81BJ6); assay: biochemical; type: biochemical, B. cereus strain ATCC14579; settings: 100 μM; read-out: Percent inhibition of ColA-CU
ColA-CU, sequence (Q81BJ6 93-764): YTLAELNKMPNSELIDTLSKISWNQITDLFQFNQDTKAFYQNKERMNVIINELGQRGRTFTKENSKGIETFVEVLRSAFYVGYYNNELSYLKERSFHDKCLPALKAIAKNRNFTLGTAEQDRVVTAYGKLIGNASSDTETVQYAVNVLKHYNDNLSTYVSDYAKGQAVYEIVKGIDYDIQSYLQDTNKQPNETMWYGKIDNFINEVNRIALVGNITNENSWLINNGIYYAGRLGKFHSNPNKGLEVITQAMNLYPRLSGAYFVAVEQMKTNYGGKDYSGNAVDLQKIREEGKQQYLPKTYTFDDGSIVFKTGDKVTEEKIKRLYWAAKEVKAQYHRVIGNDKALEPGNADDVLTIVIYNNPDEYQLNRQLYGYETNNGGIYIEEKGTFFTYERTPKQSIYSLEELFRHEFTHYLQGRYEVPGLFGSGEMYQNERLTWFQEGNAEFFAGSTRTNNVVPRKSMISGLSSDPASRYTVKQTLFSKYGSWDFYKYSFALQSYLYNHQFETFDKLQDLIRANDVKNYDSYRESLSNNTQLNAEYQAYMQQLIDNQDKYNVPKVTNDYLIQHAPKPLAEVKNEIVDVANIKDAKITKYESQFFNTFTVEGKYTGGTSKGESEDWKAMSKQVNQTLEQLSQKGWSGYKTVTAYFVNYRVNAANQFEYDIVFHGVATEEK

[12] = molecular target: ColG-CU (Hathewaya histolytica, UniProt Q9X721); assay: biochemical; type: biochemical, C. histolyticum; settings: 100 μM; read-out: Percent inhibition of ColG-CU
ColG-CU, sequence (Q9X721 111-786): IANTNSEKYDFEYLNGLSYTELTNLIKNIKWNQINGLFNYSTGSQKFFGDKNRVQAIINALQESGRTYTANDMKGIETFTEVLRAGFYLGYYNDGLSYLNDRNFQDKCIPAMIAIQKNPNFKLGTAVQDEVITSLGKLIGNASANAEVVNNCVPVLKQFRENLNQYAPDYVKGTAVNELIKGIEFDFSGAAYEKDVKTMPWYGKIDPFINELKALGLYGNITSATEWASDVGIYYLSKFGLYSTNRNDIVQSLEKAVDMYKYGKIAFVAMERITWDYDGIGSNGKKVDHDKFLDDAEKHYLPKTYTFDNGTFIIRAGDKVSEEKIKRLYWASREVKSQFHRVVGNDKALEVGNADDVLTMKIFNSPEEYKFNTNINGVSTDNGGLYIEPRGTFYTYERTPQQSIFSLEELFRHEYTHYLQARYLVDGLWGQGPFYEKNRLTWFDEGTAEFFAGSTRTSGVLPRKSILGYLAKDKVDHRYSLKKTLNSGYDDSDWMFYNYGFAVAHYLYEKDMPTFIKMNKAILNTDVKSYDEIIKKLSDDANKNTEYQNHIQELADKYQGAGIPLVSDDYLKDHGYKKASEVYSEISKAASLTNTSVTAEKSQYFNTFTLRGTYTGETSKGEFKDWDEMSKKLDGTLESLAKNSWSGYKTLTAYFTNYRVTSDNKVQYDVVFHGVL

[13] = molecular target: T4, HDAC-8 (Homo sapiens, UniProt Q9BY41); assay: Human off-target inhibition, HDAC-8; type: biochemical
T4 sequence (Q9BY41 1-377): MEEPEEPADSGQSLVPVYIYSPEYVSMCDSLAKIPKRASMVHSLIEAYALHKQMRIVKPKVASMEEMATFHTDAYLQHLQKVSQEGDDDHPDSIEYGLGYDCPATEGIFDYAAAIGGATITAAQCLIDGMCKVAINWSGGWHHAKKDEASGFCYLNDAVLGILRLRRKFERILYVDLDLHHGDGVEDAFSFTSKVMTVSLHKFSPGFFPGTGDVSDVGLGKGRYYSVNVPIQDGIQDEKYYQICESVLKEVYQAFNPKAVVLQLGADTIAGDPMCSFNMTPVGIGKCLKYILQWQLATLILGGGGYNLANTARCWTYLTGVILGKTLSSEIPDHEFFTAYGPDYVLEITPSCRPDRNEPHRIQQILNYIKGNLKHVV

HDAC-3, sequence (O15379 whole entry): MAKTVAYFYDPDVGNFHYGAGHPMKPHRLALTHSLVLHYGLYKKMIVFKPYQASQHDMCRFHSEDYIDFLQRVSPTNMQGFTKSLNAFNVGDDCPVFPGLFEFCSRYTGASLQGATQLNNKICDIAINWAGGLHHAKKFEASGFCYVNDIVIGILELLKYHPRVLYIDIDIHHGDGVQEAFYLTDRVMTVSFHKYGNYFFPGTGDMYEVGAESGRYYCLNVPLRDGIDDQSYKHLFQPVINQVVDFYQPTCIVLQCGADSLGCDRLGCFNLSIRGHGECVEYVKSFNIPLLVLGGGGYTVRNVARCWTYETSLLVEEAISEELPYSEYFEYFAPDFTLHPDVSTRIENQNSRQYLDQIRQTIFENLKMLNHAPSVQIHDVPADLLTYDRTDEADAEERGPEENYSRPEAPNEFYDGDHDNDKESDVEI
HDAC-3, sequence (Q9Y618 395-489 partner limits assumed): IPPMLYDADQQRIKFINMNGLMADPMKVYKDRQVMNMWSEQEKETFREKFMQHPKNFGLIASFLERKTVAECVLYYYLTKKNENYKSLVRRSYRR

Row | SMILES | IC50 [1] [µM] | IC50 [2] [µM] | Increase in survival of infected larvae ([3]; 50 μM) [%] | Increase in survival of infected larvae ([3]; 200 μM) | Survival of infected larvae vs control without inhibitor [3] | IC50 [4] [µM] | IC50 [5] [µM] | IC50 [6] [µM] | IC50 [7] [µM] | MIC50 [8] [µM] | IC50 [9] [µM] | inhibition at 100 µM ([9]; read-out: % Inhibition (ColQ1-CU) Mean) [%] | Concentration above which Col I chains were maintained ([10]; 1 mg/mL Col I, 50 ng ColQ1-FL) | inhibition at 100 µM [11] [%] | inhibition at 100 µM [12] [%] | IC50 [13] [µM] | Effect on survival of infected larvae ([3]; 25 μM) | Increase in survival of infected larvae ([3]; 100 μM) | Protection of Col I chains from cleavage by ColQ1-FL ([10]; 12.5–1.5 μM tested)
1 | O=P(O)(O)c1nc2cc(Cl)c(Cl)cc2nc1P(=O)(O)O [Compound 13, (6,7-Dichloroquinoxaline-2,3-diyl)bis(phosphonic acid)] | > 100 | > 200 | 5 | about 35% | ameliorated the survival of the larvae in a dose-dependent manner | 79 ± 2 | > 100 | 53 ± 3 | 33 ± 11 | 200 (≈ 71.8 µg/mL) | 5.2 ± 0.4 | 98 ± 1 | above 3 μM | 71 ± 4 | 68 ± 4 | > 100 | – | – | –
2 | O=C(Nc1ccc(Cl)c(Cl)c1)c1ccc2nc(P(=O)(O)O)c(P(=O)(O)O)nc2c1 [Compound 14, (6-((3,4-Dichlorophenyl)carbamoyl)quinoxaline-2,3-diyl)bis(phosphonic acid)] | > 100 | > 100 | – | – | ameliorated the survival of the larvae in a dose-dependent manner | > 100 | > 100 | > 100 | > 100 | 100 (≈ 47.8 µg/mL) | 16 ± 1 | – | – | 82 ± 2 | 72 ± 3 | > 100 | reduced effect | around 50% | inhibited the collagenase activity at all concentrations tested
